From PubChem BioAssay (NCI) come the findings set out here.

Each structure is given as a SMILES string. Where “and” joins values, the source holds several entries; their conditions need not be identical. Identical values can stand only once.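 Growth conditions: 96-well plates. Treatment: test compound, 48 hours, 5 concentrations. Analysis: linear interpolation between bracketing concentrations; unreached endpoints set to highest concentration. GI50 is the concentration that inhibits growth by half. TGI: concentration producing complete growth inhibition.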

Among the test systems are 786-0 renal; A549 NSCLC; ACHN renal; EKVX NSCLC; HCC-2998 colon; HCT-116 colon; KM12 colon; NCI-H23 lung; OVCAR-5 ovarian; SNB-19 CNS; U251 CNS; BT-549 breast; HCT-15 colon; OVCAR-4 ovarian; SF-295 CNS; SN12C renal.
Holding throughout (test): NCI tumour cell line growth inhibition, 48 h

Consider `CCOC(=O)C(C)NC(=O)NC12CC3CC(CC(F)(C3)C1)C2` (stereo unspecified), for which the TGI with 786-0 renal, in the assay on A549 NSCLC, with ACHN renal, in the assay on EKVX NSCLC, with HCC-2998 colon and in the assay with HCT-116 colon was greater than 100 µM in each case. The TGI in the assay on KM12 colon, in the assay on NCI-H23 lung, in the assay with OVCAR-5 ovarian, with SNB-19 CNS and in the assay on U251 CNS was greater than 100 µM throughout.
Consider `O=C(O)CCC(NC(=O)c1ccc(Oc2nc3ccccc3nc2C(=O)O)cc1)C(=O)O` (stereo unspecified), for which the TGI in the assay with 786-0 renal, in the assay on A549 NSCLC, with ACHN renal, in the assay with BT-549 breast, in the assay on EKVX NSCLC and in the assay on HCC-2998 colon was greater than 100 µM in each case. Moreover, the TGI in the assay with HCT-116 colon, in the assay with HCT-15 colon, with KM12 colon, in the assay on NCI-H23 lung, in the assay on OVCAR-4 ovarian and in the assay with OVCAR-5 ovarian was greater than 100 µM throughout. For the same compound, the TGI with SF-295 CNS, with SNB-19 CNS and with U251 CNS was greater than 100 µM in each case.
With `N#CC(NNC(=O)Cc1ccccc1)c1ccc([N+](=O)[O-])cc1` (stereo unspecified), the TGI in the assay on 786-0 renal, with A549 NSCLC, with ACHN renal, in the assay with HCT-116 colon, in the assay on HCT-15 colon and in the assay with KM12 colon was greater than 100 µM in each case. Besides, the TGI in the assay on NCI-H23 lung, in the assay with OVCAR-4 ovarian, in the assay on OVCAR-5 ovarian, in the assay on SF-295 CNS, with SN12C renal and with U251 CNS was greater than 100 µM each time.
For `COc1cc2c(c(OC)c1OC)-c1ccc(SC)c(=O)cc1[C@@H](NC(=O)c1cccc([N+](=O)[O-])c1)CC2`, the TGI with 786-0 renal was 11.8 µM; in the assay with A549 NSCLC it was 23.1 µM; in the assay with ACHN renal, greater than 100 µM; with EKVX NSCLC, 27.3 µM; with HCC-2998 colon it was 0.0497 µM; in the assay on HCT-116 colon, 0.0439 µM and 0.117 µM. Also, the TGI in the assay with HCT-15 colon was greater than 100 µM; in the assay with KM12 colon, greater than 100 µM; in the assay on OVCAR-4 ovarian, greater than 100 µM; with OVCAR-5 ovarian it was greater than 100 µM; in the assay on SN12C renal it was 21.6 µM; in the assay with U251 CNS, 0.0577 µM. Besides, the GI50 in the assay with A549 NSCLC is 0.033 µM; in the assay on HCT-15 colon, 0.027 µM; with SNB-19 CNS, 0.0268 µM.
As for `O=C1/C(=C/c2ccccc2Cl)COc2ccc(Br)cc21`, the TGI with 786-0 renal, in the assay on A549 NSCLC, with ACHN renal, with EKVX NSCLC, in the assay with HCC-2998 colon and with HCT-116 colon was greater than 100 µM in each case. In addition, the TGI in the assay on KM12 colon, in the assay with NCI-H23 lung, in the assay on OVCAR-5 ovarian, in the assay with SF-295 CNS and in the assay on U251 CNS was greater than 100 µM throughout.
Turning to `Cc1cc(Cl)ccc1NC(=O)/C(=N\NC(C)(C)C)C(C#N)c1nc(-c2ccc([N+](=O)[O-])cc2)cs1` (stereo unspecified), the TGI in the assay with 786-0 renal, with A549 NSCLC, in the assay with ACHN renal, in the assay on EKVX NSCLC, with HCC-2998 colon and in the assay on HCT-116 colon was greater than 100 µM throughout. In addition, the TGI in the assay with HCT-15 colon, in the assay on KM12 colon, with NCI-H23 lung, in the assay on OVCAR-4 ovarian, in the assay on OVCAR-5 ovarian and in the assay on SF-295 CNS was greater than 100 µM each time. Besides, the TGI with SN12C renal, in the assay on SNB-19 CNS and with U251 CNS was greater than 100 µM each time.
As for `COc1cc([C@@H]2c3cc4c(cc3[C@@H](NCc3ccccc3F)C3COC(=O)[C@@H]32)OCO4)cc(OC)c1O` (stereo partly specified), the TGI with 786-0 renal was found to be 13.8 µM; in the assay on A549 NSCLC it was 15.1 µM; with ACHN renal it was 4.28 µM; in the assay with EKVX NSCLC, 45.9 µM; with HCC-2998 colon, 28.3 µM; in the assay on HCT-116 colon, 21.9 µM. Moreover, the TGI was 22.4 µM with HCT-15 colon; 18 µM with KM12 colon; 7.5 µM in the assay on NCI-H23 lung; greater than 100 µM with OVCAR-4 ovarian; 78.4 µM in the assay with OVCAR-5 ovarian; greater than 100 µM in the assay on SF-295 CNS. Besides, the results for the TGI with SN12C renal, in the assay with SNB-19 CNS and in the assay on U251 CNS were 8.08 µM, 60.5 µM and 9.02 µM, respectively.
`CCOC(=O)c1c(CN2CCNCC2)nc2ccc(Cl)cc2c1-c1ccccc1`: the TGI was 3.15 µM in the assay with 786-0 renal; 17.7 µM in the assay with A549 NSCLC; 12.9 µM in the assay with ACHN renal; 27 µM in the assay with BT-549 breast; 23.4 µM in the assay on EKVX NSCLC; 3 µM in the assay on HCC-2998 colon. Besides, the TGI was 10.2 µM in the assay with HCT-116 colon; 10.5 µM in the assay on HCT-15 colon; 7.18 µM in the assay with KM12 colon; 25.7 µM in the assay with NCI-H23 lung; 12.3 µM in the assay on OVCAR-4 ovarian; 36 µM with OVCAR-5 ovarian. Moreover, the TGI in the assay with SF-295 CNS was 5.97 µM; in the assay with SN12C renal, 15 µM; in the assay on SNB-19 CNS, 28.4 µM; in the assay with U251 CNS it was 26.7 µM.
In the case of `COc1ccc2c(=O)c3ccoc3[nH]c2c1`, the TGI with 786-0 renal, with ACHN renal, in the assay on BT-549 breast, with EKVX NSCLC, in the assay with HCC-2998 colon and in the assay with HCT-116 colon was greater than 100 µM each time. The TGI in the assay with HCT-15 colon, with KM12 colon, in the assay on NCI-H23 lung, in the assay with OVCAR-4 ovarian, in the assay with SF-295 CNS and with SNB-19 CNS was greater than 100 µM throughout. The TGI in the assay with U251 CNS was greater than 100 µM.
As to `CC(=O)OCC12CC(CC1OC(C)=O)c1ccccc12` (stereo unspecified), the TGI in the assay on 786-0 renal, with A549 NSCLC, in the assay on ACHN renal, with HCC-2998 colon, in the assay on HCT-116 colon and in the assay with HCT-15 colon was greater than 100 µM in each case. Besides, the TGI in the assay on NCI-H23 lung, in the assay on OVCAR-4 ovarian, in the assay on OVCAR-5 ovarian, with SF-295 CNS, in the assay on SN12C renal and in the assay on SNB-19 CNS was greater than 100 µM in each case. This compound gave a TGI in the assay with U251 CNS greater than 100 µM.
